Assay results published in PubChem BioAssay (NCI).
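Here, GI50 denotes the concentration required for 50% inhibition of growth. TGI marks complete inhibition of growth.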

How the values were obtained:
Assay in all cases: DTP human tumour cell line panel, 384-well format
[1] = test system: M14 melanoma
[2] = test system: SN12C renal
[3] = test system: DU-145 prostate
[4] = test system: HOP-62 NSCLC
[5] = test system: HS 578T breast
[6] = test system: CCRF-CEM leukemia
[7] = test system: RXF 393 renal
[8] = test system: U251 glioblastoma
[9] = test system: MDA-MB-468 breast
[10] = test system: EKVX NSCLC
[11] = test system: SW-620 colon
[12] = test system: T-47D breast
[13] = test system: IGROV1 ovarian
[14] = test system: KM12 colon
[15] = test system: NCI-H23 lung
[16] = test system: SF-539 CNS
[17] = test system: SF-268 CNS
[18] = test system: SF-295 CNS
[19] = test system: CAKI-1 renal
[20] = test system: NCI/ADR-RES ovarian
[21] = test system: COLO 205 colon
[22] = test system: OVCAR-4 ovarian
[23] = test system: UACC-62 melanoma
[24] = test system: HL-60(TB) leukemia
[25] = test system: ACHN renal
[26] = test system: BT-549 breast
[27] = test system: NCI-H322M lung
[28] = test system: UO-31 renal
[29] = test system: HOP-92 NSCLC
[30] = test system: MALME-3M melanoma
[31] = test system: HCT-116 colon
[32] = test system: OVCAR-3 ovarian
[33] = test system: OVCAR-8 ovarian
[34] = test system: HT29 colon
[35] = test system: K-562 leukemia
[36] = test system: NCI-H226 lung
[37] = test system: SK-MEL-5 melanoma
[38] = test system: TK-10 renal
[39] = test system: SK-OV-3 ovarian
[40] = test system: A549 NSCLC
[41] = test system: SK-MEL-28 melanoma
[42] = test system: NCI-H522 lung
[43] = test system: HCT-15 colon
[44] = test system: MDA-MB-435 melanoma
[45] = test system: MOLT-4 leukemia
[46] = test system: MDA-MB-231 breast
[47] = test system: PC-3 prostate
[48] = test system: SNB-75 CNS
[49] = test system: SNB-19 CNS
[50] = test system: NCI-H460 NSCLC
[51] = test system: RPMI-8226 leukemia
[52] = test system: A498 renal
[53] = test system: HCC-2998 colon
[54] = test system: MCF7 breast
[55] = test system: LOX IMVI melanoma
[56] = test system: OVCAR-5 ovarian
[57] = test system: UACC-257 melanoma
[58] = test system: 786-0 renal

Structure (SMILES): COc1ccc(Oc2cc(NCCC(F)(F)F)c3ncc(-c4ccc(C(=O)NC5CC5)c(C)c4)n3n2)c(F)c1F
- GI50 [1]: 10.1 nM
- TGI [1]: 15.2 µM
- GI50 [2]: 18.5 µM
- TGI [2]: > 100 µM
- GI50 [3]: < 10 nM
- TGI [3]: > 100 µM
- GI50 [4]: < 10 nM
- TGI [4]: 4.93 µM
- GI50 [5]: 20.4 nM
- TGI [5]: 2320 nM
- GI50 [6]: < 10 nM
- TGI [6]: < 10 nM
- GI50 [7]: < 10 nM
- TGI [7]: 932 nM
- GI50 [8]: < 10 nM
- TGI [8]: 17.4 µM
- GI50 [9]: < 10 nM
- TGI [9]: 3.47 µM
- GI50 [10]: 5.88 µM
- TGI [10]: 84.2 µM
- GI50 [11]: < 10 nM
- TGI [11]: 18.5 µM
- GI50 [12]: 2110 nM
- TGI [12]: 34.8 µM
- GI50 [13]: 337 nM
- TGI [13]: 46.4 µM
- GI50 [14]: 271 nM
- TGI [14]: > 100 µM
- GI50 [15]: < 10 nM
- TGI [15]: 29.6 µM
- GI50 [16]: < 10 nM
- TGI [16]: 2110 nM
- GI50 [17]: < 10 nM
- TGI [17]: < 10 nM
- GI50 [18]: 1410 nM
- TGI [18]: 31.2 µM
- GI50 [19]: 208 nM
- TGI [19]: 2480 nM
- GI50 [20]: < 10 nM
- TGI [20]: 568 nM
- GI50 [21]: < 10 nM
- TGI [21]: > 100 µM
- GI50 [22]: 13.9 µM
- TGI [22]: 67 µM
- GI50 [23]: 44.1 nM
- TGI [23]: 8.83 µM
- GI50 [24]: < 10 nM
- TGI [24]: < 10 nM
- GI50 [25]: 169 nM
- TGI [25]: 26.9 µM
- GI50 [26]: 256 nM
- TGI [26]: 17 µM
- GI50 [27]: 2140 nM
- TGI [27]: > 100 µM
- GI50 [28]: < 10 nM
- TGI [28]: 20 µM
- GI50 [29]: 1160 nM
- TGI [29]: 14.5 µM
- GI50 [30]: 182 nM
- TGI [30]: 26.7 µM
- GI50 [31]: < 10 nM
- TGI [31]: > 100 µM
- GI50 [32]: 365 nM
- TGI [32]: 17.5 µM
- GI50 [33]: < 10 nM
- TGI [33]: 3.68 µM
- GI50 [34]: < 10 nM
- TGI [34]: > 100 µM
- GI50 [35]: 264 nM
- TGI [35]: > 100 µM
- GI50 [36]: 4.83 µM
- TGI [36]: 54.4 µM
- GI50 [37]: < 10 nM
- TGI [37]: 18.5 µM
- GI50 [38]: 5.83 µM
- TGI [38]: 62.2 µM
- GI50 [39]: 459 nM
- TGI [39]: 27 µM
- GI50 [40]: < 10 nM
- TGI [40]: 18.4 µM
- GI50 [41]: 9.92 µM
- TGI [41]: 40.7 µM
- GI50 [42]: 682 nM
- TGI [42]: 14.3 µM
- GI50 [43]: < 10 nM
- TGI [43]: 12.2 µM
- GI50 [44]: 286 nM
- TGI [44]: 70 µM
- GI50 [45]: < 10 nM
- TGI [45]: < 10 nM
- GI50 [46]: 365 nM
- TGI [46]: 30.1 µM
- GI50 [47]: 1430 nM
- TGI [47]: 28.8 µM
- GI50 [48]: 54.4 nM
- TGI [48]: 13.3 µM
- GI50 [49]: 2800 nM
- TGI [49]: 39.8 µM
- GI50 [50]: < 10 nM
- TGI [50]: 1170 nM
- GI50 [51]: < 10 nM
- TGI [51]: 24.5 µM
- GI50 [52]: 189 nM
- TGI [52]: 7.86 µM
- GI50 [53]: 13.1 µM
- TGI [53]: > 100 µM
- GI50 [54]: 1750 nM
- TGI [54]: 85 µM
- GI50 [55]: < 10 nM
- TGI [55]: 11.5 µM
- GI50 [56]: 977 nM
- TGI [56]: > 100 µM
- GI50 [57]: 3.09 µM
- TGI [57]: 25.4 µM
- GI50 [58]: < 10 nM
- TGI [58]: 14.3 µM
